{"source": "patent US20120329860A1", "about": "“Uses of Beta-Nicotinamide Adenine Dinucleotide” (MEDICAL COLLEGE OF GEORGIA INSTITUTE, INC, priority 2010, published 2012)", "key": {"[1]": {"test_system": "pro-inflammatory/anti-inflammatory cytokines gene expression", "experiment": "qPCR of cytokine gene expression in lungs", "assay_type": "in vivo", "conditions": "LPS/β-NAD vs LPS only mice", "protocol": "Total RNA was prepared from the lung of mouse tissue using RNeasy mini kit (Qiagen, Valencia, Calif.). The mRNA was reverse-transcribed into complementary deoxyribonucleic acid (cDNA) using iScript reagents from Bio-Rad on a programmable thermal cycler (PCR-Sprint, Thermo Electron, Milford, Mass.). 50 ng of cDNA was amplified in each real-time polymerase chain reaction using ABgene reagents (distributed by Fisher Scientific), Bio-Rad myiQ Cycler and Custom-designed primers for genes specific to the mice (Integrated DNA Technologies, Coralville, Iowa). The Reverse transcription reaction was carried out for 25 min at 42° C. and terminated for 5 min at 85° C. Real time PCR was performed by denaturation for 30 sec at 94° C., annealing for 30 sec at 60° C. for a total of 40 cycles. The glyceraldehyde-3-phosphate dehydrogenase (GAPDH) was used to normalize the expression of the target genes."}, "Myeloperoxidase (MPO)": {"test_system": "Myeloperoxidase (MPO)", "experiment": "Myeloperoxidase (MPO) activity and staining in lungs", "assay_type": "in vivo, mice", "protocol": "MPO is a hemoprotein that is abundantly expressed in polymorphonuclear leukocytes (neutrophils) and secreted during their activation. MPO assay was carried out according to the manufacturer's assay protocol (Cayman Chemicals). Lungs of vehicle, LPS or LPS/b-NAD treated mice were used for the MPO assay. Lungs (free of blood) were weighed and snap frozen in liquid nitrogen. The left lung was weighed and homogenized in the lysis buffer and then centrifuged (12,000×g, 30 min). The protein from the clear supernatant was estimated and normalized from different treatment and analyzed for the MPO levels by ELISA. Values represent mean±SEM (n=3)."}}}
{"compound": "NC(=O)C1=CN([C@@H]2O[C@H](COP(=O)(O)OP(=O)(O)OC[C@H]3O[C@@H](n4cnc5c(N)ncnc54)[C@H](O)[C@@H]3O)[C@@H](O)[C@H]2O)C=CC1", "note": "[β-NAD, beta-nicotinamide adenine dinucleotide]", "values": [{"measurement": "anti-inflammatory cytokines (IL-4, IL-10, and IL-13) gene expression in lungs", "setting": "[1]", "result": "elevated"}, {"measurement": "proinflammatory cytokines (IL-1α, IL-1β, IFN-γ and TNF-α) gene expression in lungs", "setting": "[1]", "result": "substantially or markedly downregulated"}, {"measurement": "MPO staining of lung sections (neutrophil infiltration)", "setting": "Myeloperoxidase (MPO); LPS with β-NAD treatment", "result": "attenuated the LPS-induced myeloperoxidase"}, {"measurement": "MPO activity in lungs", "setting": "Myeloperoxidase (MPO); LPS/b-NAD vs LPS challenged mice", "result": "attenuated MPO activity"}, {"measurement": "MPO activity in lungs, β-NAD alone", "setting": "Myeloperoxidase (MPO); β-NAD alone, no LPS", "result": "no effect"}]}
